The record followed here is article PMC8472287, “Betulinic Acid Decorated with Polar Groups and Blue Emitting BODIPY Dye: Synthesis, Cytotoxicity, Cell-Cycle Analysis and Anti-HIV Profiling” (Biomedicines, 2021).

SMILES strings stand for the structures. Counter-ions that a name gives are not always drawn. Like-named read-outs stand apart in the source and are kept apart here. Some results are limits rather than exact numbers.

The IC50 is the point on the concentration scale where inhibition reaches its midpoint.

The subject of data set [1] is CCRF-CEM. The data set can be described thus: MTS cytotoxicity assay, CCRF-CEM. Format: cell-based. The conditions noted are these: Homo sapiens, 72 h, 3-day incubation. Put shortly:
(§1)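 Cells seeded at 25,000–35,000 cells/mL were exposed to four-fold dilutions of compound in DMSO for 72 h at 37 °C, 5% CO2. MTS added for 1–4 h, OD read at 490 nm; tumour cell survival calculated as percent of control-well OD.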

The test system of data set [2] is CEM-DNR. The data set can be described thus: MTS cytotoxicity assay, CEM-DNR. The data set is classed as cell-based. The following applies: Homo sapiens, 72 h, CEM-DNR (daunorubicin resistant), 3-day incubation. The method, boiled down:
(§2)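 Using a four-fold dilution series in DMSO added at seeding, cytotoxicity was scored after 72 h incubation by MTS conversion at 490 nm, as percent survival versus control wells.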
(Tetrazolium dyes change colour on reduction, which living cells bring about.)

In data set [3] the test system is K562. The data set can be described thus: MTS cytotoxicity assay, K562. The following applies: Homo sapiens, 72 h, 3-day incubation. The data set is classed as cell-based. Put shortly: as §2
Data set [4] relates to K562-Tax. Description: MTS cytotoxicity assay, K562-Tax. The data set is classed as cell-based. The following applies: Homo sapiens, 72 h, K562-Tax (paclitaxel-resistant), 3-day incubation. The method, boiled down:
as §1

Data set [5] concerns A549. Description: MTS cytotoxicity assay, A549. Format: cell-based. The following applies: Homo sapiens, 72 h, 3-day incubation. Put shortly: as §2
Data set [6] deals with HCT116. The data set can be described thus: MTS cytotoxicity assay, HCT116. The following applies: Homo sapiens, HCT-116, 72 h, 3-day incubation. The data set is classed as cell-based. The method, boiled down:
as §2

The test system of data set [7] is HCT116p53−/−. The data set can be described thus: MTS cytotoxicity assay, HCT116p53−/−. Format: cell-based. The following applies: Homo sapiens, HCT116-p53-null, 72 h, HCT116p53−/− (null p53 gene), 3-day incubation. Put shortly: as §2
The test system of data set [8] is U2OS. Description: MTS cytotoxicity assay, U2OS. The data set is classed as cell-based. The conditions noted are these: Homo sapiens, 72 h, 3-day incubation. The method, boiled down:
as §2

In data set [9] the test system is MRC-5. Description: MTS cytotoxicity assay, MRC-5. The data set is classed as cell-based. The conditions noted are these: Homo sapiens, MRC5, 72 h, MRC-5 normal fibroblasts, 3-day incubation. Put shortly: as §2
In data set [10] the test system is BJ. The data set can be described thus: MTS cytotoxicity assay, BJ. The following applies: Homo sapiens, 72 h, BJ normal fibroblasts, 3-day incubation. Format: cell-based. The method, boiled down:
as §2

In data set [11] the test system is entire cell line panel. Description: MTS cytotoxicity assay, whole panel (summary in words). The conditions noted are these: maximal tested concentration.
Data set [12] deals with CCRF-CEM lymphoblasts. Description: Mitotic marker pH3Ser10 flow cytometry. The data set is classed as cell-based, human. The following applies: 5 × IC50. Here is the method:
(§3) CCRF-CEM cells were seeded in 6-well plates at a density of 1 × 10^6/well. […] Cells were then harvested, washed with cold 1 × PBS and fixed in ice-cold 70% ethanol. Fixed cells were incubated overnight at −20 °C, washed in hypotonic citrate buffer, treated with RNase (50 μg mL^−1) and incubated with propidium iodide for 15 min. DNA content was analysed using Becton Dickinson flow cytometer and cell cycle data were analysed in the program ModFitLT (Verity, Carrollton, TX, USA). Apoptosis was measured in a logarithmic model expressing the percentage of the particles with propidium content lower than cells in G0/G1 phase (<G1) of the cell cycle. The mitotic marker pH3Ser10 antibody (Sigma) and secondary anti-mouse-FITC antibody (Sigma) were used for labelling and subsequent flow cytometry analysis of ethanol-fixed CCRF-CEM cells.
In general terms: Flow cytometry measures light scatter and fluorescence of single cells or particles in a stream.

Data set [13] relates to CCRF-CEM lymphoblasts. Description: BrDU incorporation analysis (DNA synthesis). Format: cell-based, human. The following applies: 24 h incubation. Here is the method: Cells were cultivated as in the method above and pulse-labelled with 10 μM 5-bromo-2-deoxyuridine (BrDU) for 30 min before collection to the test tubes. The cells were washed with cold 1 × PBS and fixed in ice-cold 70% ethanol. Before analysis, they were washed with 1 × PBS and incubated in 2M HCl for 30 min at room temperature. Following neutralization with 0.1M Na2B4O7 (borax), the cells were washed with 0.5% Tween-20 and 1% BSA in 1 × PBS. The cell pellets were stained using a primary anti-BrdU antibody (Exbio, Vestec, Czech Republic) for 30 min at room temperature and a secondary anti-mouse-FITC antibody (Sigma). The samples were then incubated with propidium iodide (0.1 mg mL^−1), treated with RNase A (0.5 mg mL^−1) for 1 h at room temperature in the dark and analysed as above.

For data set [14], the system named is CCRF-CEM lymphoblasts. The data set can be described thus: BrU incorporation analysis (RNA synthesis). The conditions noted are these: 24 h, 5 × IC50 (high concentration). Format: cell-based, human.
Data set [15] deals with entire cell line panel.
Data set [16] has as its system HEK 293 cells. The following applies: Resazurin assay. A general note: The colour change of resazurin is a common sign of viable cells or microbes.
In data set [17] the test system is U2OS-Nuc cell line. The data set can be described thus: Live cell imaging, pilot experiment. The conditions noted are these: 10 µM, 1 h incubation. Format: cell-based, human. The procedure:
(§4) U2OS cell line (ATCC, USA) was transduced with premade lentiviral particles (Vectalis-TaKaRa, Japan) with sequences that express fluorescent protein tag mCherry targeted to specific subcellular locations. All cell lines were prepared according to the vendor’s instructions. The U2OS-Nuc cell line was prepared by using rLV.EF1.mCherry-Nuc-9 (cat. n. 0023VCT), containing a NLS sequence that imports protein into the nucleus. The U2OS-ER cell line was transduced by rLV.EF1.mCherry-ER-9 (cat. n. 0025VCT), which contains a calreticulin signal sequence and a KDEL sequence that associates protein with the endoplasmic reticulum. The U2OS-GA cell line was transduced by rLV.EF1.mCherry-Golgi-9 (cat. n. 0022VCT), containing a human GT precursor, a protein localized in Golgi Apparatus. The U2OS-Mito cell line was prepared by using rLV.EF1.mCherry-Mito-9 (cat. n. 0024VCT), containing a mitochondrial targeting sequence.
(§5) U2OS cells with fluorescent fusion proteins (density 1.0 × 10^3 per well) were seeded into 384 CellCarrier plates (Perkin Elmer, Waltham, MA, USA) and pre-incubated for 24 h at 37 °C and 5% CO2. The attached cells were treated with tested compounds in concentration 10 µM for 1 h and subsequently rinsed with fresh media. The live-cell imaging was performed by Cell Voyager CV7000 (Yokogawa, Tokyo, Japan) spinning disc confocal microscopy system at 37 °C in a 5% CO2 atmosphere. Live cells were monitored by a 60 × water immersion objective. The fluorescent signal was excited by lasers (405 nm and 561 nm) and the emission was filtered by bandpass filters (BP 445/45 and BP 595/20). All images were post-processed, and Pearson’s and Mander’s coefficients were calculated using the JACoP plugin in Image-J software.

In data set [18] the test system is U2OS-ER, U2OS-Mito and U2OS-GA cell lines. The data set can be described thus: Live cell colocalization experiments. The data set is classed as cell-based, human. The conditions noted are these: 10 µM, 1 h, Mander's coefficient. The procedure:
as §4, §5

A short description of data set [19]: in vitro. The following applies: human.
The subject of data set [20] is CCRF-CEM lymphoblasts. The data set can be described thus: Cell cycle and apoptosis analysis (flow cytometry, propidium iodide). Format: cell-based, human. The following applies: 5 × IC50. Here is the method:
as §3

For `C=C(C)[C@@H]1CC[C@]2(C(=O)O)CC[C@]3(C)[C@H](CC[C@@H]4[C@@]5(C)CC[C@H](O)C(C)(C)[C@@H]5CC[C@]43C)[C@@H]12` [BA, Betulinic acid], the IC50 in [1] is over 50000 nM; in data set [2], 23.1 µM; in [3], over 50000 nM; in data set [4] it was over 50000 nM; in data set [5] it was 22.7 µM; in data set [6], over 50000 nM. For the same compound, the IC50 in [7] was over 50000 nM; in data set [8], 29700 nM; in data set [9] it was over 50000 nM; in data set [10] it was over 50000 nM. For the same compound, in data set [11], the “cytotoxic effect in the cell line panel (in words)” value (“cytotoxic effect” for short) is “weak or medium cytotoxic effect”.
Take `C=C(C)[C@@H]1CC[C@]2(C(=O)NCCCN)CC[C@]3(C)[C@H](CC[C@@H]4[C@@]5(C)CC[C@H](O)C(C)(C)[C@@H]5CC[C@]43C)[C@@H]12` [Compound 3, (3β)-N-(3-Aminopropyl)-3-hydroxylup-20(29)-ene-28-amide]: the IC50 turned out to be 210 nM in [1]; 1.22 µM in [2]; 900 nM in data set [3]; 370 nM in data set [4]; 1.8 µM in [5]; 820 nM in data set [6]. Also, the IC50 in data set [7] came out at 440 nM; in data set [8], 890 nM; in data set [9] it was 2590 nM; in data set [10], 1910 nM. Besides, the “rate of cell division by mitotic marker pH3Ser10 (in words)” value (from here on “rate of cell division”) in [12] is “low rate of cell division”. For the same compound, the “fraction of proliferating BrDU positive CCRF-CEM cells (in words)” value (from here on “fraction”) in data set [13] was “reduced the fraction of proliferating BrDU positive CCRF-CEM cells”. Besides, the “RNA synthesis by BrU (in words)” value in [14] is listed as “stalled RNA synthesis”. In data set [15], the “cytotoxic effect” value was “high cytotoxicity”. In addition, in data set [16], the “concentration at which highly toxic to HEK 293 cells” value was “lower than 5 µM”.
`C=C(C)[C@@H]1CC[C@]2(C(=O)NCCCN)CC[C@]3(C)[C@H](CC[C@@H]4[C@@]5(C)CC[C@H](OC(=O)CCNC6=C7C=CC=[N+]7[B-](F)(F)n7cccc76)C(C)(C)[C@@H]5CC[C@]43C)[C@@H]12` [Compound 6, (3β)-N-(3-Aminopropyl)-3-[N´-(4,4-difluoro-4-bora-3a,4a-diaza-s-indacene-8-yl)-β-alanyl]-oxy-lup-20(29)-ene-28-amide]: the IC50 in data set [1] is 1550 nM; in data set [2], 11.5 µM; in [3] it was 5250 nM; in data set [4], 31800 nM; in data set [5], 6.65 µM; in data set [6], 3850 nM. In addition, the concentration for half-maximal inhibition (IC50) in [7] came to 3390 nM; in data set [8] it was 5000 nM; in [9], 8070 nM; in [10], 8370 nM; in [19], 12 µM. For the same compound, in [12], the “rate of cell division” value is on record as “low rate of cell division”. In addition, in data set [13], the “fraction” value is “reduced the fraction of proliferating BrDU positive CCRF-CEM cells”. Further, the “detection in living cells” value in [17] is on record as “detected in living cells”. For the same compound, the “colocalization with cellular structures” value in data set [18] is “almost perfectly label mitochondria and endoplasmic reticulum”. Besides, the “cytotoxic effect” value in data set [15] was “high cytotoxicity”.
As to `C=C(C)[C@@H]1CC[C@]2(C(=O)N3CCN(CCN)CC3)CC[C@]3(C)[C@H](CC[C@@H]4[C@@]5(C)CC[C@H](O)C(C)(C)[C@@H]5CC[C@]43C)[C@@H]12` [Compound 14, (3β)-28-[4-(2-Aminoethyl)piperazine-1-yl]-3-hydroxylup-20(29)-ene-28-one hydrochloride], the IC50 in data set [1] stood at 290 nM; in data set [2], 0.35 µM; in [3], 400 nM; in data set [4], 520 nM; in data set [5], 1.26 µM; in [6], 390 nM. Also, the IC50 in data set [7] worked out at 440 nM; in [8], 420 nM; in data set [9] it was 1580 nM; in data set [10] it was 1590 nM. Besides, the “increase of the percentage of cells in the S-phase compared to untreated control” value in [20] was “about 50%”. Also, in data set [12], the “rate of cell division” value is “low rate of cell division”. The “fraction” value in data set [13] is “reduced the fraction of proliferating BrDU positive CCRF-CEM cells”. Further, the “RNA synthesis by BrU (in words)” value in data set [14] is recorded as “stalled RNA synthesis”. The “cytotoxic effect” value in data set [15] is given as “high cytotoxicity”. The “concentration at which highly toxic to HEK 293 cells” value in data set [16] is given as “lower than 5 µM”.
